The inhibition is the percentage by which the read-out fell short of the control.

Structures are written as SMILES. Several values for one entry are separate records, joined by “and”; a condition that tells them apart may be missing. Equal values may be shown once.

From paper PMC11018795, “The regulatory relationship between NAMPT and PD-L1 in cancer and identification of a dual-targeting inhibitor” (EMBO Molecular Medicine, 2024) come the findings set out here.

One assay concerns A20 tumors. Briefly: A20 tumor-bearing Balb/c nude mice. It counts as in vivo, mouse. The conditions noted are these: 20 mg/kg i.p., Fig 6E. On the procedure:
The 4–6 weeks-old Balb/c mice and Balb/c nude mice were maintained in a specific pathogen-free (SPF) facility. A20 cells (5 × 10^6 cells in 0.2 ml phosphate-buffered saline) were subcutaneously injected into the right armpit of Balb/c mice and Balb/c nude mice. Tumor volume was measured using calipers every 2 days and calculated using the following formula: (long diameter) × (short diameter)^2/2. […] Balb/c nude mice were treated with LZFPN-90 (20 mg/kg). After 12 days of administration, the animals were anesthetized, and tumors were excised. Some fresh tumor tissues were subjected to immune cell isolation. Tissues were either fixed in 4% formalin or stored at −80 °C until further analysis.

The test system of assay [1] is A2780 cells. Briefly: Cell cycle analysis, A2780. In kind it is cell-based, human. The text has this:
Supplement 44321_2024_51_MOESM5_ESM.zip/Fig4-D.xlsx, sheet "Sheet1" | column: G0/G1; S; G2/M

The subject of assay [2] is LLC OE NAMPT cells co-cultured with T cells. Briefly: T cell-mediated tumor cell killing assay, LLC OE NAMPT. It counts as cell-based. The conditions noted are these: Mus musculus, 100 nM, read-out: inhibition rate (T cell-mediated killing). The method, then:
(§1) To acquire activated T cells, human peripheral blood mononuclear cells (PBMC; LTS1077, Yanjin Biological) were cultured in CTSTM AIIM VTM SFM (A3021002; Gibco) with ImmunoCult Human CD3/CD28/CD2 T-cell activator (25 µL/mL; […] Technologies, Cat#10970) for 48 h according to the manufacturer’s protocol. The experiments were performed using mouse anti-CD3 antibody (1 µg/mL; Thermo Scientific, 16-0032-82) and anti-CD28 antibody(5 µg/mL; Thermo Scientific, 16-0281-82). Cancer cells were allowed to adhere to the plates overnight and then incubated for 48 h with activated T cells in the presence or absence of DX ([…]). Different proportions of cancer cells and activated T cells were utilized according to the purpose of each experiment. The T-cell proliferation assay was 1:3; the T-cell killing assay was 1:10; T cells and cell debris were removed by PBS washing, and the living cancer cells were then quantified by a spectrometer at OD (570 nm) followed by crystal violet staining. page 12: Fig 3: […] expression patterns. […] Data was obtained from the TCGA database. (B) T cell-mediated tumor cell killing assay. T cells were co-cultured with LLC Vector, […] CQ-85, or BMS202. […] stained by crystal violet. The relative added value of activated T cells is shown below. Data are presented as mean ± SEM; *P < 0.05, **P < 0.01, ***P < 0.001, compared with control. n.s., not significant. […]

Assay [3] has as its system LLC sh NAMPT cells co-cultured with T cells. Briefly: T cell killing assay (colony formation), LLC sh NAMPT. It counts as cell-based. The settings on record: Mus musculus, 72 h, 100 nM, three days, read-out: inhibition rate of colony formation number. The method, then: To acquire activated T cells, human peripheral blood mononuclear cells (PBMC; LTS1077, Yanjin Biological) were cultured in CTSTM AIIM VTM SFM (A3021002; Gibco) with ImmunoCult Human CD3/CD28/CD2 T-cell activator (25 μL/mL; […] Technologies, Cat#10970) for 48 h according to the manufacturer's protocol. The experiments were performed using mouse anti-CD3 antibody (1 μg/mL; Thermo Scientific, 16-0032-82) and anti-CD28 antibody(5 μg/mL; Thermo Scientific, 16-0281-82). […] Different proportions of cancer cells and activated T cells were utilized according to the purpose of each experiment. The T-cell proliferation assay was 1:3; the T-cell killing assay was 1:10; T cells and cell debris were removed by PBS washing, and the living cancer cells were then quantified by a spectrometer at OD (570 nm) followed by crystal violet staining. page 28: Fig 8: Effects of LZFPN-90 and NMN on tumor immune microenvironment. […] (C) T cells were co-cultured with LLC cells, and treated with LZFPN-90 (100 nM), and NMN (1 mM) to detect the cell proliferation by T cell killing assay. Data are presented as mean ± SEM; *P < 0.05, **P < 0.01, ***P < 0.001 compared with control. n.s., not significant. (1 picture or pasted object on this page, not shown here)

For assay [4], the system named is LLC Vector cells co-cultured with T cells. Briefly: T cell-mediated tumor cell killing assay, LLC Vector. In kind it is cell-based. The settings on record: Mus musculus, 100 nM, read-out: inhibition rate (T cell-mediated killing). On the procedure:
as §1

The subject of assay [5] is lung cancer organoids derived from lung cancer patients. The assay can be described thus: Patient-derived lung cancer organoid viability. It counts as cell-based, human. The conditions noted are these: 100 nM; 9 days. On the procedure:
Human lung cancer samples were obtained from Shengjing Hospital of China Medical University (IRB No. 2023PS1105K). The establishment of lung cancer patient-derived organoids was performed as described ([…] et al, [2019]). Organoids were seeded into 96-well plates and treated with the corresponding compounds for 9 days, and cell viability was determined by CellTiter Glo 3D cell viability assay (Promega, G9683).

In assay [6] the test system is LLC OE PD-L1 cells co-cultured with T cells. Briefly: T cell-mediated tumor cell killing assay, LLC OE PD-L1. In kind it is cell-based. The settings on record: Mus musculus, 100 nM, read-out: inhibition rate (T cell-mediated killing). On the procedure:
as §1

The test system of assay [7] is A2780 cells. The assay can be described thus: MTT assay 48 h, A2780. In kind it is cell-based, human. On the procedure:
(§2) Cells (5 × 10^3/well) were seeded into a 96-well plate and cultured at 37 °C in a 5% CO2 incubator. […] At the final time point, 10 μl MTT solution (5 mg/ml, Sigma, Burlington, MA, USA) was added to each well and incubated for an additional 4 h at 37 °C in a 5% CO2 incubator. Then,100 μl of DMSO was added to each well and mixed thoroughly. Optical density was measured at 492 nm using a microplate reader (Molecular Devices, San Jose, CA, USA).
For orientation: Formazan colour is commonly taken as a measure of viable cells.

The test system of a further assay is HepG2 cells. Briefly: MTT assay 48 h, HepG2. It counts as cell-based, human. On the procedure: as §2

In the case of `CCN(CC)CCCOc1cccc(-c2cccc3c2CCN3C(=O)c2ncc(CNC(=NC#N)Nc3ccncc3)s2)c1` [LZFPN-90], the “TIR (relative tumor weight)” value in the assay on A20 tumors is 46.2%. The “Cell cycle G0/G1” value in the assay on A2780 cells [1] (LZ90 20) is 36.54 and 37.05 and 37.41; in the assay with A2780 cells [1] (LZ90 40), 46.76 and 45.07; in the assay with A2780 cells [1] (LZ90 60), 32.3 and 44.46. The “Cell cycle G2/M” value in the assay with A2780 cells [1] (LZ90 20) is 35.48 and 38.97 and 35.02; in the assay with A2780 cells [1] (LZ90 40), 35.5 and 29.25 and 33.56; in the assay on A2780 cells [1] (LZ90 60), 27.02 and 27.05. Moreover, the “Cell cycle S” value with A2780 cells [1] (LZ90 20) was 24.02 and 27.3 and 26.67; in the assay on A2780 cells [1] (LZ90 40), 23.4 and 20.94 and 19.12; in the assay on A2780 cells [1] (LZ90 60) it was 39.91 and 27.43. Besides, the inhibition at 0.1 µM in assay [2] was roughly 60%; in assay [3], 26.8%; in assay [4], roughly 40%; in assay [6] it was roughly 60%. Moreover, the “survival of lung cancer organoids” value in assay [5] is recorded as “the survival of the organoids was decreased significantly”. The “Relative inhibition (敏感性)” value with A2780 cells [7] stood at 0.85; in the assay with HepG2 cells, 0.58.
